From ChEMBL document CHEMBL5107969, “Alzheimer's disease: Updated multi-targets therapeutics are in clinical and in progress” (Eur J Med Chem, 2022) come the findings set out here.

Each structure is given as a SMILES string.

Data set [1] in a line: Drug uptake in CD-1 mouse brain at 10 mg/kg, po via gavage measured after 5 mins by LC-MS/MS analysis. Conditions: read-out: Ct. It is filed as ADME, organism-based.
Data set [2] is described as follows: Drug uptake in CD-1 mouse plasma at 10 mg/kg, po via gavage measured after 5 mins by LC-MS/MS analysis. The data set is classed as ADME, organism-based.
For a further data set, the species on record is Homo sapiens. The experiment in a line: Selectivity ratio of Ki for sigma1 receptor (unknown origin) to Ki for sigma2 receptor (unknown origin).
Another data set relates to HEK293. Briefly: Induction of Nrf2/ARE transcriptional activation in human HEK293 cells measured after 24 hrs by Bright-Glo luciferase assay. The data set is classed as cell-based. The settings on record: filed as activator.
Data set [3] addresses T1, Amyloid-beta precursor protein (Homo sapiens, UniProt P05067). Briefly: Disaggregation of self-induced amyloid beta (1 to 42) (unknown origin) aggregation at 25 uM incubated for 24 hrs by Thioflavin T-based fluorometric assay relative to control.
The target in data set [4] is T1, Amyloid-beta precursor protein. Briefly: Inhibition of self-induced amyloid beta (1 to 42) (unknown origin) aggregation at 25 uM incubated for 24 hrs by Thioflavin T-based fluorometric assay relative to control.
A further data set addresses Cholinesterase (Equus caballus, UniProt P81908). The experiment in a line: Inhibition of equine serum BChE incubated for 15 mins by Ellman's method. It is filed as cell-free.
A short description of data set [5]: Drug concentration in […] mouse brain at 3 mg/kg, po measured after 30 mins. The data set is classed as ADME, organism-based. The settings on record: read-out: Ct.
Data set [6] deals with T1, Amyloid-beta precursor protein. The experiment in a line: Inhibition of human AChE-induced amyloid beta (1 to 40) aggregation (unknown origin).

T1 sequence (P05067 whole entry): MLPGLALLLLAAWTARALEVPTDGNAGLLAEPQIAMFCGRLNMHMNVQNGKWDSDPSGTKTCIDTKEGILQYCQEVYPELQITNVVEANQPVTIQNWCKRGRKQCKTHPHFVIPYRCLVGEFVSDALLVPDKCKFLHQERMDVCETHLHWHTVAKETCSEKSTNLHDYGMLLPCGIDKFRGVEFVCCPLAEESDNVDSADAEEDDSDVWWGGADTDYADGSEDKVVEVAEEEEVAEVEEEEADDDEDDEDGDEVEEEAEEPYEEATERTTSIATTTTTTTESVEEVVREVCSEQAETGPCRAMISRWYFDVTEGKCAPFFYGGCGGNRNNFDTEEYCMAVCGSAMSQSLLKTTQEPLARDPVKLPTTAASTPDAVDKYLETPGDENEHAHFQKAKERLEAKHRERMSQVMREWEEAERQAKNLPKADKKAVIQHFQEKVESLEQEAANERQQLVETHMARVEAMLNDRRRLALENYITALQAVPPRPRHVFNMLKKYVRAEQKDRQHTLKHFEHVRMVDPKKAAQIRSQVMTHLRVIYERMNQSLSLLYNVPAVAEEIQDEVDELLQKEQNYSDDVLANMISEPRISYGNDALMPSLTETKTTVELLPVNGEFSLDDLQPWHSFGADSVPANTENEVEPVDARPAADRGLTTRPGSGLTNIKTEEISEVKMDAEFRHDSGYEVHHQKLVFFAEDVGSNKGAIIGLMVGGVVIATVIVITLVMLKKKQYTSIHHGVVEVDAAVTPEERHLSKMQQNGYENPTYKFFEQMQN
Chain of Cholinesterase (P81908 whole entry): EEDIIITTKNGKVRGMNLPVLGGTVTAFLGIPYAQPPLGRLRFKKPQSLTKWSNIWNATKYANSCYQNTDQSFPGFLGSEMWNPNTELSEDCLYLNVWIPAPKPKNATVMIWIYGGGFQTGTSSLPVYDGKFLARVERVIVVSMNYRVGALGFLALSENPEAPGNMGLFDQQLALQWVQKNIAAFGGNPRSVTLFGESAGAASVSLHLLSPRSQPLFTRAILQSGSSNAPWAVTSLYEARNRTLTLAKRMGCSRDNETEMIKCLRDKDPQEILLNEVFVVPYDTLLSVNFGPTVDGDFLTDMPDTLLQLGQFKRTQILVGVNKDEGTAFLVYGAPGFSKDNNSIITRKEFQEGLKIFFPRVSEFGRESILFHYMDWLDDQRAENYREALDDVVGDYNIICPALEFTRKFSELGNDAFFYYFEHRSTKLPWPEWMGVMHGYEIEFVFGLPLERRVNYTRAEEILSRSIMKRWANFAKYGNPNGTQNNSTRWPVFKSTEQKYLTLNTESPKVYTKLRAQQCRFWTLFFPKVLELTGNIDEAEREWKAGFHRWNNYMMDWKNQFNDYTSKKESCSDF

Regarding `CN(C)c1ccc(O)c(CNc2cccc3ccc(CO)nc23)c1`, the concentration at 5 min came to 14.3 ng/mL in data set [1] and 5.91 ng/mL in data set [2].
Regarding `O=c1ccoc2ccc(OCCCN3CCCCCC3)cc12`, the Ratio Ki in the data set listed under Homo sapiens came to 28.
On to `CCCOc1ccc2[nH]cc(CCNC(=O)CN(CCc3c[nH]c4ccc(OCc5ccccc5)cc34)C(=O)CCCC[C@@H]3CCSS3)c2c1`, for which, in the data set on HEK293, the CD turned out to be 28.1 µM.
For orientation: inhibition means the relative decrease from the control value, in per cent. One may read the IC50 as the concentration that gives 50% inhibition. Higher therefore signals weaker potency. With `CCN(CCCCOc1ccc(/C=C/C(=O)N2CCc3ccccc3C2)cc1OC)Cc1ccccc1`, the Activity in data set [3] is 43.8%. Further, the inhibition in data set [4] came out at 53.9%. At Cholinesterase, this compound gave an IC50 of 0.0089 µM.
Turning to `NC1=NC(c2ccc(F)cc2)NC(=O)N1` (centres undefined), the concentration at 0.5 h in data set [5] came to 620 nM.
In data set [6], `CCN(CCCCCCNC1=CC(=O)C(NCCCCCCN(CC)Cc2ccccc2OC)=CC1=O)Cc1ccccc1OC` [MEMOQUIN] returned an IC50 of 28.3 µM.
